Test results from PubChem BioAssay AID1361 (SRMLSC, 2008).
The source made the active and inactive calls. No rule for the calls is given here.

Test: mitochondrial fusion inhibitors, confirmation, cell-based, chemical genetic, wild-type and mutant (AID 1361)
Conditions: Cell-based mitochondrial fusion phenotype, imaging
[1] = mutant cells, measured here: mutant cell line IC50

| SMILES | IC50 (WT cells) | IC50 [1] |
| --- | --- | --- |
| C/C=C(/C(=C/C)c1ccc(O)cc1)c1ccc(O)cc1 | 21 µM | > 25 µM |
| CC(=O)Oc1ccc(N(C(C)=O)S(=O)(=O)c2cccs2)cc1 | > 25 µM (inactive) | > 25 µM |
| O=[N+]([O-])c1ccccc1S(=O)(=O)NCCC1=CCCCC1 | > 25 µM (inactive) | > 25 µM |
| CN1/C(=C\C(=O)Nc2ccc(Br)cc2)C(C)(C)c2ccccc21 | 5.66 µM | 16.7 µM |
| CCOC(=O)c1c(NC(=O)C(C)N2CCN(C(=O)c3ccco3)CC2)sc2c1CCCC2 (centres undefined) | 10.9 µM | > 25 µM |
| O=[N+]([O-])c1cccnc1N1CCC(c2cc(-c3ccc(Cl)cc3Cl)n[nH]2)CC1 | 6.53 µM | > 25 µM |
| CCOC(=O)Cn1c(=NC(=O)c2ccc([N+](=O)[O-])s2)sc2ccccc21 | 4.55 µM | > 25 µM |
| C=CCSc1nnc(NC(=O)COc2ccc3ccccc3c2)s1 | > 25 µM (inactive) | > 25 µM |
| O=C(CCc1nc(-c2ccccc2)no1)NCCc1ccccc1 | > 25 µM (inactive) | > 25 µM |
| CCN(CC)CCNC(=O)Cn1nc(Cc2ccccc2)c2ccccc2c1=O | > 25 µM (inactive) | > 25 µM |
| Cc1cccn2c(=O)c(C=NCc3ccco3)c(Nc3ccc(SC(F)F)cc3)nc12 | > 25 µM (inactive) | > 25 µM |
| CC(c1ccccc1)N(CC(=O)NC1CCCCC1)S(=O)(=O)c1cccc(C(F)(F)F)c1 (centres undefined) | 12.4 µM | > 25 µM |
| Cc1ccc(C(=O)NC(=S)/C=C2\N(C)c3ccccc3C2(C)C)cc1 | 12 µM | > 25 µM |
| O=C1c2ccccc2OC2(C=Cc3ccccc3O2)N1Cc1ccccc1 (centres undefined) | 5.8 µM | > 25 µM |
| Cc1ccc(S(=O)(=O)Nc2ccc(C(OC(=O)c3ccccc3[N+](=O)[O-])(C(F)(F)F)C(F)(F)F)cc2)cc1 | 11 µM | > 25 µM |
| Cc1ccccc1N1CCN(c2ncnc3scc(-c4cccs4)c23)CC1 | 9.75 µM | > 12.5 µM |
| CCCC/C(C)=C/[C@@H](NP(=O)(c1ccccc1)c1ccccc1)c1ccccc1 | 9.84 µM | > 25 µM |
| CCCCCC(O)c1cccc(OCc2ccc3ccccc3n2)c1 (centres undefined) | 14.9 µM | > 25 µM |
| CCOc1ccc(NC(=O)C2CC(=O)N(C(C)C)C2)cc1 (centres undefined) | > 25 µM (inactive) | > 25 µM |
| CC1CCc2c(sc(NC(=O)COC(=O)c3ccc(O)cc3)c2C#N)C1 (centres undefined) | > 25 µM (inactive) | > 25 µM |
| CCOC(=O)C1=C(NC(=S)NC(=O)c2ccccc2)c2ccccc2CC12CCCC2 | 6.33 µM | > 25 µM |

| SMILES | IC50 (WT cells) | IC50 [1] |
| --- | --- | --- |
| O=C(Cc1c(O)c2ccccc2[nH]c1=O)NCc1ccccc1F | > 25 µM (inactive) | > 25 µM |
| N=c1c(C(=O)NCc2ccco2)cc2c(=O)n3ccccc3nc2n1Cc1ccc(Cl)cc1 | > 25 µM (inactive) | > 25 µM |
| COc1cccc(NC(=S)N(CCc2c(C)[nH]c3ccccc23)Cc2ccco2)c1 | 15.6 µM (inactive) | > 12.5 µM |
| Cn1c(CCN2CCN(c3ccccc3)CC2)nc2cc(NC(=O)c3ccco3)ccc21 | > 25 µM (inactive) | > 25 µM |
| COc1ccc(NP(=O)(Oc2ccc(Cl)cc2)Oc2ccc(Cl)cc2)cc1OC | 12.6 µM | > 25 µM |
| CN1CCN(CCCNC(=O)c2ccc(/C=C3/Sc4ccccc4N(Cc4cccc(Cl)c4)C3=O)cc2)CC1 | 12.1 µM | > 12.5 µM |
| Cc1sc(NC(=O)CSc2nnnn2C2CCCCC2)c(C#N)c1C | > 25 µM (inactive) | > 25 µM |
| CN1/C(=C\C=Nc2ccc3ccccc3c2)C(C)(C)c2ccccc21 | > 25 µM (inactive) | 21.8 µM |
| CCC(CC)C(=O)c1c[nH]c(C(=O)NCCCN2CCOCC2)c1 | > 25 µM (inactive) | > 25 µM |
| CC1CC(C)(C)N2C(=O)C3(Nc4ccccc4S3)c3cccc1c32 (centres undefined) | > 25 µM (inactive) | > 25 µM |
| COc1ccc(/C=C/C(=O)N2CCN(c3ccccn3)CC2)c2ccccc12 | 19.9 µM | > 25 µM |
| Cc1ccc(-c2cc(C(F)F)n3ncc(C(=O)Nc4c(C)nn(Cc5ccccc5Cl)c4C)c3n2)cc1 | 16.2 µM | > 25 µM |
| Cc1ccc(-c2csc3ncnc(N4CCc5ccccc5C4)c23)cc1 | 9.52 µM | > 25 µM |
| COc1ccc(C2N(c3ccc(Cl)cc3)N=C(C(C)=O)N(C)N2C(C)=O)cc1 (centres undefined) | 15.8 µM | > 25 µM |
| CN1C=CC=C/C1=C1\SC(=S)N(c2ccccc2)C1=O | > 25 µM (inactive) | > 25 µM |
| Cc1ccc(CNCC(O)(c2ccccc2)c2ccc(Cl)cc2)cc1 (centres undefined) | 18.7 µM | 24.9 µM |
| CCn1ccnc1CN1CCc2c([nH]c3ccccc23)C1CC(C)C (centres undefined) | > 25 µM (inactive) | > 25 µM |
| COc1ccc(NC(=S)NC(NC(=O)c2ccc(Cl)cc2Cl)C(Cl)(Cl)Cl)c([N+](=O)[O-])c1 (centres undefined) | 11.4 µM | > 25 µM |
| O=C1CC(C(=O)NCc2ccccc2)C2(CCCC2)O1 (centres undefined) | > 25 µM (inactive) | > 25 µM |
| Cc1ccc(CNC(=O)CCNC(=O)c2ccco2)cc1 | > 25 µM (inactive) | > 25 µM |
| Cc1cc(C)n(CC(O)Cn2c3ccc(Br)cc3c3cc(Br)ccc32)c(=O)n1 (centres undefined) | 11 µM | > 25 µM |

| SMILES | IC50 (WT cells) | IC50 [1] |
| --- | --- | --- |
| CN(CC(=O)Nc1ccccc1Sc1ccccc1)C1CCCCC1 | 23.2 µM | > 25 µM |
| Cc1cccc2nc(-c3ccccc3)nc(N3CCC(O)(c4ccc(Cl)cc4)CC3)c12 | 4.04 µM | > 25 µM |
| O=C(c1ccccc1)c1nnc(-c2ccncc2)o1 | > 25 µM (inactive) | > 25 µM |
| Cc1ccccc1NC1=C(Cl)C(=O)N(C2CCCCC2)C1=O | 19.1 µM | > 25 µM |
| CC(C)Cc1ccc(C(C)C(=O)OCC(=O)c2c[nH]c3ccccc23)cc1 (centres undefined) | 17.5 µM | > 25 µM |
| CCOc1ccc(NCc2nnc(SCc3ccc(Cl)cc3)n2-c2ccccc2)cc1 | > 25 µM (inactive) | > 25 µM |
| CC(C)N1C(=O)/C(=C\c2nc3ccccc3c(=O)n2-c2ccccc2)c2ccccc21 | 18.8 µM | > 25 µM |
| Cc1cc(C)c(OCC(=O)Nc2nnc(-c3ccco3)o2)c(C)c1 | > 25 µM (inactive) | > 25 µM |
| Cc1nc(C)c(-c2csc(Nc3cccc(O)c3)n2)s1 | > 25 µM (inactive) | > 25 µM |
| CCOc1ccccc1NC(=O)C(OC(=O)c1ccc(O)cc1)c1ccccc1 (centres undefined) | 9.83 µM | > 25 µM |
| COc1ccc(NC(=O)N2c3ccccc3CC2C)cc1OC (centres undefined) | > 25 µM (inactive) | > 25 µM |
| Cc1ccccc1Nc1scc(-c2ccc(Cl)cc2)[n+]1-c1ccccc1C | 8.24 µM | > 25 µM |
| CCCN(CCC)CCCNC(=O)CS(=O)Cc1nc(-c2ccc(OC)c(OC)c2)oc1C (centres undefined) | > 25 µM (inactive) | > 25 µM |
| c1ccc2c(c1)nc(CN1CCOCC1)n1c3ccccc3nc21 | > 25 µM (inactive) | > 25 µM |
| COC(=O)C1=C(O)C(C(=O)OC)C(c2ccc(C)cc2)C(C#N)(C#N)C1c1ccc(C)cc1 (centres undefined) | 4.71 µM | > 25 µM |
| CC(C)CN(C(=O)c1nn(C)c(=O)c2ccccc12)c1nc2ccccc2s1 | 21.9 µM | > 25 µM |
| CC(C)c1ccc(NC(=O)c2sccc2-n2cccc2)cc1 | > 25 µM (inactive) | > 25 µM |
| c1ccc(-c2nnc(CSc3nnc(-c4ccncc4)n3Cc3ccco3)o2)cc1 | > 25 µM (inactive) | > 25 µM |
| COc1ccc(NC(=O)Nc2cccc([N+](=O)[O-])c2)cc1Cl | > 25 µM (inactive) | > 25 µM |
| COc1ccc(-c2nc3ccccc3s2)cc1O | > 25 µM (inactive) | > 25 µM |
| COc1ccc(NC(=S)N(CCCN2CCCC2)Cc2cccn2Cc2ccc(Cl)cc2)cc1Cl | 10.9 µM | 23.2 µM |

| SMILES | IC50 (WT cells) | IC50 [1] |
| --- | --- | --- |
| CCCCNC(=O)C1=C(N)C(C(=O)Nc2ccc(C)c(S(=O)(=O)N3CCCCC3)c2)SC1=Nc1ccc(C)cc1C (centres undefined) | > 25 µM (inactive) | > 25 µM |
| COc1cccc(CNC(=O)CNC(=S)N(Cc2ccccc2)Cc2ccccc2F)c1 | 23.1 µM | > 25 µM |
| CNC(=S)N1CCN(c2ccc([N+](=O)[O-])cc2)CC1 | > 25 µM (inactive) | > 25 µM |
| CSc1nnc(C2CCNCC2)n1C | > 25 µM (inactive) | > 25 µM |
| Cc1cc(C)n(CCc2nc(-c3ccc(C(C)(C)C)cc3)cs2)n1 | 22.1 µM | > 25 µM |
| NC(=O)c1ccc(NC(=O)COC(=O)c2c3c(nc4ccccc24)/C(=C\c2ccc4c(c2)OCO4)CCC3)cc1 | 8.77 µM | > 25 µM |
| Cc1cccc(NC(=S)N/N=C/c2ccc3c(c2)OCO3)c1 | > 25 µM (inactive) | > 25 µM |
| O=C1COc2ccc(NC(=O)N3CCN(c4ccc(F)cc4)CC3)cc2N1 | > 25 µM (inactive) | > 25 µM |
| C=C(C)c1cccc(C(C)(C)NC(=O)Nc2ccc(Cl)cn2)c1 | 12.8 µM | > 25 µM |
| CC1CC(C)CN(c2ncnc3c2cnn3Cc2ccc(Cl)cc2)C1 (centres undefined) | 12.8 µM | 17.9 µM |
| Cc1ccc(NC(=O)CC2S/C(=N/N=C3\CCCc4ccccc43)NC2=O)cc1 (centres undefined) | 22.2 µM | > 25 µM |
| CCC(C)c1ccc(NC(=S)Nc2ccc(OC)cc2C)cc1 (centres undefined) | 18.5 µM | > 25 µM |
| Cc1nc2cc(C(=O)OCC(=O)NC34CC5CC(CC(C5)C3)C4)ccc2n1-c1ccccc1 | 21.9 µM | > 25 µM |
| COC(=O)c1ccc(CSc2nc3ccccc3c(=O)n2CC(C)C)o1 | > 25 µM (inactive) | > 25 µM |
| Cc1ccc(/C(=N\O)c2oc3c(C)c4oc(=O)cc(C)c4cc3c2C)cc1 | 7.3 µM | > 25 µM |
| COC(=O)Cc1ccc(N(Cc2ccccc2F)S(=O)(=O)c2ccc(C)cc2)cc1 | 3.34 µM | > 25 µM |
| Cc1cc(NCCCn2ccnc2)n2ncc(-c3ccc(Cl)cc3)c2n1 | 11.1 µM | 17.9 µM |
| Cc1c(C)c2ccc(OC3CCCCC3=O)cc2oc1=O (centres undefined) | > 25 µM (inactive) | > 25 µM |
| CN(C)c1ccc(C(CNS(=O)(=O)c2ccc(F)c(F)c2)c2c[nH]c3ccccc23)cc1 (centres undefined) | 13.4 µM | > 25 µM |
